Measured values taken from patent EP1480941B1, “UREA DERIVATIVES AS HIV ASPARTYL PROTEASE INHIBITORS” (priority 2002, dated 2003).
Read-outs that look alike come from different tables or passages of the source.

Assays:
[1] = system: laboratory viral strain NL4.3; experiment: Anti-viral assay in vitro (MTT assay on infected MT-4 cells); assay type: cell-based, HIV-1; conditions: Human immunodeficiency virus 1, MT4, 144 h, infected MT-4 cells incubated six days, average of at least two determinations
Description: (§1) Anti-viral and cytotoxicity assays in vitro
(§2) We also use some WT clinical strains.

MT-4 = experiment: Cytotoxicity assay in vitro (MTT assay, virus omitted); assay type: cell-based
Description: as §1, §2

HIV protease = HIV protease (Human immunodeficiency virus type 1 group M subtype B, UniProt P04585); experiment: Enzymatic (fluorometric FRET) assay for determining the inhibition constant (Ki); assay type: biochemical; conditions: EDANS/DABCYL substrate, equation of Henderson
Description: Enzymatic assay for determining the inhibition constant (Ki) of synthetic compounds targeting the HIV protease
This is a fluorometric assay based on the cleavage by protease of a substrate carrying a donor group (EDANS) and an acceptor group (DABCYL) on each side of the cleavage site, interacting together through fluorescence resonance energy transfer (FRET) as described by Matayoshi et al. (Science 247:[…], 1990).
After calculation of Vo and Vi, the inhibition constant (Ki) of the compound is determined using the equation of Henderson: (Vo)/(Vi) = 1 + ([I])/(Kiapp) Where Ki = (Kiapp)/((1 + [S])/(Km)) [formula] where Vo = the enzyme's initial velocity Vi = the enzyme velocity in the presence of the inhibitory compound, [I] = inhibitor concentration, [S] = substrate concentration, Km = Michaelis-Menten constant and Kiapp = apparent Ki
Graphs are traced and the Ki determined using GraphPad Prism software v. 3.0.

[2] = cell culture IC50, same MTT assay with virus omitted, average of at least two determinations

Row | SMILES | EC50 [1] [nM] | Ki (HIV protease; Ki) [nM] | also measured
1 | Cc1ccc(S(=O)(=O)N(CC(C)C)[C@H](CO)CCCCNC(=O)N(Cc2ccccc2)Cc2ccccc2[N+](=O)[O-])cc1 [Example 59, (2S) 2-N-isobutyl-2-N-(4-methylbenzenesulfonyl)-6-N-[N'-benzyl-N'-(2-nitrobenzyl)aminocarbonyl]-2,6-diaminohexanol] | 385 | – | CCIC50 (MT-4; [2]): 4.6 µM
2 | Cc1ccc(S(=O)(=O)N(CC(C)C)[C@H](CO)CCCCNC(=O)N(Cc2ccccc2)Cc2cccc([N+](=O)[O-])c2)cc1 [Example 60, (2S) 2-N-isobutyl-2-N-(4-methylbenzenesulfonyl)-6-N-[N'-benzyl-N'-(3-nitrobenzyl)aminocarbonyl]-2,6-diaminohexanol] | 1800 | – | CCIC50 (MT-4; [2]): 4.6 µM
3 | Cc1ccc(S(=O)(=O)N(CC(C)C)[C@H](CO)CCCCNC(=O)N(Cc2ccccc2)Cc2ccc([N+](=O)[O-])cc2)cc1 [Example 61, (2S) 2-N-isobutyl-2-N-(4-methylbenzenesulfonyl)-6-N-[N'-benzyl-N'-(4-nitrobenzyl)aminocarbonyl]-2,6-diaminohexanol] | 3800 | – | CCIC50 (MT-4; [2]): 5.1 µM
4 | CC(C)CN([C@H](CO)CCCCNC(=O)N(Cc1ccc(F)cc1)Cc1ccc2c(c1)OCO2)S(=O)(=O)c1ccc(N)cc1 [Example 67, (2S) 2-N-(4-aminobenzenesulfonyl)-2-N-isobutyl-6-N-[N'-(4-fluorobenzyl)-N'-piperonylaminocarbonyl]-2,6-diaminohexanol] | 488 | – | CCIC50 (MT-4; [2]): 11 µM
5 | CC(C)CN([C@H](CO)CCCCNC(=O)N(Cc1ccccc1)Cc1ccc2c(c1)OCO2)S(=O)(=O)c1ccc(N)cc1 [Example 82, (2S) 2-N-(4-aminobenzenesulfonyl)-2-N-isobutyl-6-N-(N'-benzyl-N'-piperonylaminocarbonyl)-2,6-diaminohexanol] | 1400 | – | CCIC50 (MT-4; [2]): 12.5 µM
6 | CC(C)CN([C@H](CO)CCCCNC(=O)N(Cc1ccc2c(c1)OCO2)Cc1ccc2c(c1)OCO2)S(=O)(=O)c1ccc(N)cc1 [Example 85, (2S) 2-N-(4-aminobenzenesulfonyl)-2-N-isobutyl-6-N-(N',N'-dipiperonylaminocarbonyl)-2,6-diaminohexanol] | 130 | – | CCIC50 (MT-4; [2]): 13.1 µM
7 | CC(C)CCN([C@H](CO)CCCCNC(=O)N(Cc1ccccc1)Cc1ccccc1)S(=O)(=O)c1ccc(N)cc1 [Example 86, (2S) 2-N-(4-aminobenzenesulfonyl)-2-N-(3-methylbutyl)-6-N-(N'-N'-dibenzylaminocarbonyl)-2,6-diaminohexanol] | – | 5.8 | –
8 | CC(C)CCN([C@H](CO)CCCCNC(=O)N(Cc1ccc2c(c1)OCO2)Cc1cccs1)S(=O)(=O)c1ccc(N)cc1 [Example 87, (2S) 2-N-(4-aminobenzenesulfonyl)-2-N-(3-methylbutyl)-6-N-[N'-(2-thiophenemethyl)-N'-piperonylaminocarbonyl]-2,6-diaminohexanol] | – | 1.4 | –
9 | COc1ccc(CN(Cc2ccc3c(c2)OCO3)C(=O)NCCCC[C@@H](CO)N(CCC(C)C)S(=O)(=O)c2ccc(N)cc2)cc1 [Example 88, (2S) 2-N-(4-aminobenzenesulfonyl)-2-N-(3-methylbutyl)-6-N-[N'-(4-methoxybenzyl)-N'-piperonylaminocarbonyl]-2,6-diaminohexanol] | – | 2.9 | –
10 | CC(C)CN([C@H](CO)CCCCNC(=O)N(Cc1ccccc1)Cc1cccc2c1OCO2)S(=O)(=O)c1ccc(N)cc1 [Example 91, (2S) 2-N-(4-aminobenzenesulfonyl)-2-N-isobutyl-6-N-[N'-benzyl-N'-(2,3-methylenedioxy)benzylaminocarbonyl]-2,6-diaminohexanol] | – | 5.4 | –
11 | CC(C)CN([C@H](CO)CCCCNC(=O)N(Cc1ccccc1)Cc1ccc(F)cc1F)S(=O)(=O)c1ccc(N)cc1 [Example 93, (2S) 2-N-(4-aminobenzenesulfonyl)-2-N-isobutyl-6-N-[N'-benzyl-N'-(2,4-difluorobenzyl)aminocarbonyl]-2,6-diaminohexanol] | – | 12 | –
12 | CC(C)CCN([C@H](CO)CCCCNC(=O)N(Cc1ccncc1)Cc1ccc2c(c1)OCO2)S(=O)(=O)c1ccc(N)cc1 [Example 95, (2S) 2-N-(4-aminobenzenesulfonyl)-2-N-(3-methylbutyl)-6-N-[N'-(4-picolyl)-N'-piperonylaminocarbonyl]-2,6-diaminohexanol] | 550 | 7.1 | CCIC50 (MT-4; human, 6 days): 28.8 µM
13 | CC(C)CCN([C@H](CO)CCCCNC(=O)N(Cc1ccccc1)Cc1cccc2c1OCO2)S(=O)(=O)c1ccc(N)cc1 [Example 96, (2S) 2-N-(4-aminobenzenesulfonyl)-2-N-(3-methylbutyl)-6-N-[N'-benzyl-N'-(2,3-methylenedioxy)benzylaminocarbonyl]-2,6-diaminohexanol] | – | 4 | –
14 | CCC(C)CN([C@H](CO)CCCCNC(=O)N(Cc1ccccc1)Cc1ccc2c(c1)OCO2)S(=O)(=O)c1ccc(N)cc1 (stereo partly drawn) [Example 98, (2S) 2-N-(4-aminobenzenesulfonyl)-2-N-(2-methylbutyl)-6-N-[N'-benzyl-N'-piperonylaminocarbonyl]-2,6-diaminohexanol] | – | – | Ki (HIV protease): 13 nM
15 | CCC(C)CN(C(CO)CCCCNC(=O)N(Cc1ccc(OC)cc1)Cc1ccc2c(c1)OCO2)S(=O)(=O)c1ccc(N)cc1 [Example 100, (2S) 2-N-(4-aminobenzenesulfonyl)-2-N-(2-methylbutyl)-6-N-[N'-(4-methoxybenzyl)-N'-piperonylaminocarbonyl]-2,6-diaminohexanol] | – | – | Ki (HIV protease; read-out: Ki): > 300 nM
16 | CC(C)CCN([C@H](CO)CCCCNC(=O)N(Cc1ccccc1)Cc1ccc2c(c1)OCO2)S(=O)(=O)c1ccc(N)cc1 [Example 101, (2S) 2-N-(4-aminobenzenesulfonyl)-2-N-(3-methylbutyl)-6-N-[N'-benzyl-N'-piperonylaminocarbonyl]-2,6-diaminohexanol] | – | 4.1 | –
17 | CC(C)CCN([C@H](CO)CCCCNC(=O)N(Cc1ccc(F)cc1)Cc1ccc2c(c1)OCO2)S(=O)(=O)c1ccc(N)cc1 [Example 102, (2S) 2-N-(4-aminobenzenesulfonyl)-2-N-(3-methylbutyl)-6-N-[N'-(4-fluorobenzyl)-N'-piperonylaminocarbonyl]-2,6-diaminohexanol] | 1200 | 4.9 | CCIC50 (MT-4; human, 6 days): 24.4 µM
18 | CC(C)CCN([C@H](CO)CCCCNC(=O)N(Cc1ccc(F)cc1)Cc1ccc2c(c1)OCCO2)S(=O)(=O)c1ccc(N)cc1 [Example 103, (2S) 2-N-(4-aminobenzenesulfonyl)-2-N-(3-methylbutyl)-6-N-[N'-(4-fluorobenzyl)-N'-(3,4-ethylenedioxy)benzylaminocarbonyl]-2,6-diaminohexanol] | – | 5.4 | –
19 | CC(C)CCN([C@H](CO)CCCCNC(=O)N(Cc1ccc2c(c1)OCO2)CC(C)C)S(=O)(=O)c1ccc(N)cc1 [Example 104, (2S) 2-N-(4-aminobenzenesulfonyl)-2-N-(3-methylbutyl)-6-N-(N'-isobutyl-N'-piperonylaminocarbonyl)-2,6-diaminohexanol] | – | 77 | –
20 | COc1cccc(CN(Cc2ccc3c(c2)OCO3)C(=S)NCCCC[C@@H](CO)N(CCC(C)C)S(=O)(=O)c2ccc(N)cc2)c1 [Example 105, (2S) 2-N-(4-aminobenzenesulfonyl)-2-N-(3-methylbutyl)-6-N-[N'-(3-methoxybenzyl)-N'-piperonylaminothiocarbonyl]-2,6-diaminohexanol] | – | 2.6 | –
21 | COc1ccc(CN(Cc2ccc3c(c2)OCO3)C(=S)NCCCC[C@@H](CO)N(CCC(C)C)S(=O)(=O)c2ccc(N)cc2)cc1OC [Example 106, (2S) 2-N-(4-aminobenzenesulfonyl)-2-N-(3-methylbutyl)-6-N-[N'-(3,4-dimethoxybenzyl)-N'-piperonylaminothiocarbonyl]-2,6-diaminohexanol] | – | 2.9 | –
22 | COc1cc(CN(Cc2ccc3c(c2)OCO3)C(=S)NCCCC[C@@H](CO)N(CCC(C)C)S(=O)(=O)c2ccc(N)cc2)cc(OC)c1OC [Example 107, (2S) 2-N-(4-aminobenzenesulfonyl)-2-N-(3-methylbutyl)-6-N-[N'-(3,4,5-trimethoxybenzyl)-N'-piperonylaminothiocarbonyl]-2,6-diaminohexanol] | 680 | 4.9 | CCIC50 (MT-4; human, 6 days): 10.7 µM
23 | CC(C)CCN([C@H](CO)CCCCNC(=S)N(Cc1ccc(F)cc1)Cc1ccc2c(c1)OCCO2)S(=O)(=O)c1ccc(N)cc1 [Example 108, (2S) 2-N-(4-aminobenzenesulfonyl)-2-N-(3-methylbutyl)-6-N-[N"(4-fluorobenzyl)-N'-(3,4-ethylenedioxy)benzylaminothiocarbonyl]-2,6-diaminohexanol] | – | 9.9 | –
24 | COc1ccc(CN(Cc2ccc3c(c2)OCO3)C(=S)NCCCC[C@@H](CO)N(CCC(C)C)S(=O)(=O)c2ccc(N)cc2)cc1 [Example 109, (2S) 2-N-(4-aminobenzenesulfonyl)-2-N-(3-methylbutyl)-6-N-[N'-(4-methoxybenzyl)-N'-piperonylaminothiocarbonyl]-2,6-diaminohexanol] | – | 3.6 | –
25 | COc1cccc(CN(Cc2ccc3c(c2)OCO3)C(=O)NCCCC[C@@H](CO)N(CCC(C)C)S(=O)(=O)c2ccc(N)cc2)c1 [Example 110, (2S) 2-N-(4-aminobenzenesulfonyl)-2-N-(3-methylbutyl)-6-N-[N'-(3-methoxybenzyl)-N'-piperonylaminocarbonyl]-2,6-diaminohexanol] | 350 | 2.2 | –
